According to US10166218B2, “3-(1H-indol-2-yl)-1H-pyrazolo[3,4-C]pyridines and therapeutic uses thereof” (Samumed, LLC, priority 2015, dated 2019):
pEC50: −log10 of the molar value.

Tested on: primary human fibroblasts derived from IPF patients (LL29 cells) treated with TGF-β1; α-smooth muscle actin (αSMA)
Test: Inhibition of the fibrotic process: αSMA staining in TGF-β1 treated primary human fibroblasts from IPF patients (LL29 cells)
Format: cell-based
Conditions: Fibroblast, 96 h, TGF-β1 20 ng/mL, 4 days, % cells positive for αSMA
In short: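 Potency reflects suppression of TGF-β1-driven αSMA expression in IPF patient fibroblasts over 4 days. Values are EC50s from normalized αSMA-positive cell counts, with % inhibition at 10 μM when EC50 exceeded 10 μM.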

Compound	pEC50
Cc1ccncc1-c1cc2c(-c3cc4c(-c5cccc(F)c5)cccc4[nH]3)n[nH]c2cn1 [Compound 5, 3-(4-(3-Fluorophenyl)-1H-indol-2-yl)-5-(4-methylpyridin-3-yl)-1H-pyrazolo [3,4-c]pyridine]	6.22
O=C(Nc1cncc(-c2cc3c(-c4cc5c(-c6cccc(F)c6)cccc5[nH]4)n[nH]c3cn2)c1)c1ccccc1 [Compound 11, N-(5-(3-(4-(3-Fluorophenyl)-1H-indol-2-yl)-1H-pyrazolo[3,4-c]pyridin-5-yl)pyridin-3-yl)benzamide]	6.06
O=C(Nc1cncc(-c2cc3c(-c4cc5c(-c6cccc(F)c6)cccc5[nH]4)n[nH]c3cn2)c1)C1CCC1 [Compound 21, N-(5-(3-(4-(3-Fluorophenyl)-1H-indol-2-yl)-1H-pyrazolo[3,4-c]pyridin-5-yl)pyridin-3-yl)cyclobutanecarboxamide]	5.77
CC(C)CC(=O)Nc1cncc(-c2cc3c(-c4cc5c(-c6ccc(F)cc6)cccc5[nH]4)n[nH]c3cn2)c1 [Compound 30, N-(5-(3-(4-(4-Fluorophenyl)-1H-indol-2-yl)-1H-pyrazolo[3,4-c]pyridin-5-yl)pyridin-3-yl)-3-methylbutanamide]	5.64
O=C(Cc1ccccc1)Nc1cncc(-c2cc3c(-c4cc5c(-c6ccc(F)cc6)cccc5[nH]4)n[nH]c3cn2)c1 [Compound 38, N-(5-(3-(4-(4-Fluorophenyl)-1H-indol-2-yl)-1H-pyrazolo[3,4-c]pyridin-5-yl)pyridin-3-yl)-2-phenylacetamide]	6.18
O=C(Nc1cncc(-c2cc3c(-c4cc5c(-c6ccc(F)cc6)cccc5[nH]4)n[nH]c3cn2)c1)C1CCCCC1 [Compound 51, N-(5-(3-(4-(4-Fluorophenyl)-1H-indol-2-yl)-1H-pyrazolo[3,4-c]pyridin-5-yl)pyridin-3-yl)cyclohexanecarboxamide]	6.09
Fc1ccc(-c2cccc3[nH]c(-c4n[nH]c5cnc(-c6cncnc6)cc45)cc23)cc1 [Compound 55, 3-(4-(4-Fluorophenyl)-1H-indol-2-yl)-5-(pyrimidin-5-yl)-1H-pyrazolo[3,4-c]pyridine]	5.57
CC(C)C(=O)Nc1cncc(-c2cc3c(-c4cc5c(-c6ccccc6F)cccc5[nH]4)n[nH]c3cn2)c1 [Compound 65, N-(5-(3-(4-(2-Fluorophenyl)-1H-indol-2-yl)-1H-pyrazolo[3,4-c]pyridin-5-yl)pyridin-3-yl)isobutyramide]	5.95
CCCCC(=O)Nc1cncc(-c2cc3c(-c4cc5c(-c6ccccc6F)cccc5[nH]4)n[nH]c3cn2)c1 [Compound 75, N-(5-(3-(4-(2-Fluorophenyl)-1H-indol-2-yl)-1H-pyrazolo[3,4-c]pyridin-5-yl)pyridin-3-yl)pentanamide]	5.69
O=C(Nc1cncc(-c2cc3c(-c4cc5c(-c6ccccc6F)cccc5[nH]4)n[nH]c3cn2)c1)C1CC1 [Compound 76, N-(5-(3-(4-(2-Fluorophenyl)-1H-indol-2-yl)-1H-pyrazolo[3,4-c]pyridin-5-yl)pyridin-3-yl)cyclopropanecarboxamide]	6.51
Cc1ccncc1-c1cc2c(-c3cc4c(-c5ccncc5)cccc4[nH]3)n[nH]c2cn1 [Compound 117, 5-(4-Methylpyridin-3-yl)-3-(4-(pyridin-4-yl)-1H-indol-2-yl)-1H-pyrazolo [3,4-c]pyridine]	5.98
CC(C)(C)C(=O)Nc1cncc(-c2cc3c(-c4cc5c(-c6ccncc6)cccc5[nH]4)n[nH]c3cn2)c1 [Compound 120, N-(5-(3-(4-(Pyridin-4-yl)-1H-indol-2-yl)-1H-pyrazolo[3,4-c]pyridin-5-yl)pyridin-3-yl)pivalamide]	5.99
CC(C)(C)CC(=O)Nc1cncc(-c2cc3c(-c4cc5c(-c6ccncc6)cccc5[nH]4)n[nH]c3cn2)c1 [Compound 128, 3,3-Dimethyl-N-(5-(3-(4-(pyridin-4-yl)-1H-indol-2-yl)-1H-pyrazolo[3,4-c]pyridin-5-yl)pyridin-3-yl)butanamide]	< 5.00

Same assay, conditions: Fibroblast, 96 h, TGF-β1 20 ng/mL, 4 days, αSMA, 10 μM, read-out: percent inhibition at 10 μM (given for EC50 of >10 μM)

Compound	inhibition at 10 µM [%]
CC(C)(C)CC(=O)Nc1cncc(-c2cc3c(-c4cc5c(-c6ccncc6)cccc5[nH]4)n[nH]c3cn2)c1 [Compound 128, 3,3-Dimethyl-N-(5-(3-(4-(pyridin-4-yl)-1H-indol-2-yl)-1H-pyrazolo[3,4-c]pyridin-5-yl)pyridin-3-yl)butanamide]	23.7
